In patent US11590115B2, “Pseudomonas strains and their metabolites to control fish diseases” (T3 BIOSCIENCE, LLC, priority 2020, dated 2023):
≈ marks a conversion by molar mass, not a printed value. Read-outs that look alike come from different tables or passages of the source.

Key:
Aeromonas salmonicida = assay: MIC determination in broth, 96 well plates (OD600 and plating); format: cell-based; details: Aeromonas salmonicida (furunculosis), (TSA/TSB)/20° C.
Streptococcus agalactiae = assay: as above; format: cell-based; details: Streptococcus agalactiae (streptococcosis), (TSAY/TSBY)/28° C.
Streptococcus iniae = assay: as above; format: cell-based; details: Streptococcus iniae (streptococcosis), (TSAY/TSBY)/28° C.
Tenacibaculum maritimum = assay: as above; format: cell-based; details: Tenacibaculum maritimum (tenacibaculosis), (MA/MB)/15° C.
Saprolegnia parasitica = assay: Minimum lethal concentration (MLC) determination; format: cell-based; details: Saprolegnia parasitica (saprolegniasis); GY/20° C.; in triplicate
Vibrio parahaemolyticus = assay: MIC determination in broth, 96 well plates (OD600 and plating)

SMILES: CSC1=C(C)C(=O)C(=O)NC1=O [RejuAgro A]
- MIC (Aeromonas salmonicida): 1.56 mg/L (≈ 8.42 µM)
- MIC (Aeromonas salmonicida; read-out: MIC): 1.56 mg/L (≈ 8.42 µM)
- MIC (Streptococcus agalactiae): 1.56 mg/L (≈ 8.42 µM)
- MIC (Streptococcus agalactiae; read-out: MIC): 1.56 mg/L (≈ 8.42 µM)
- MIC (Streptococcus iniae): 3.13 mg/L (≈ 16.9 µM)
- MIC (Streptococcus iniae; read-out: MIC): 3.13 mg/L (≈ 16.9 µM)
- MIC (Tenacibaculum maritimum): 12.5 mg/L (≈ 67.5 µM)
- MIC (Tenacibaculum maritimum; read-out: MIC): 12.5 mg/L (≈ 67.5 µM)
- MLC (minimum lethal concentration) (Saprolegnia parasitica): 100 mg/L (≈ 540 µM)
- MIC (Vibrio parahaemolyticus; Vibrio parahaemolyticus): 0.39 mg/L (≈ 2.11 µM)
- MIC (Vibrio parahaemolyticus; Vibrio parahaemolyticus (vibriosis, acute hepatopancreatic necrosis disease), (TSA2/TSB2)/37° C.): 0.39 mg/L (≈ 2.11 µM)
